According to patent US20230407243A1, “GENETIC PLATFORM TO INVESTIGATE THE FUNCTIONS OF BACTERIAL DRUG EFFLUX PUMPS” (priority 2022, published 2023):
Read-outs that look alike come from different tables or passages of the source.

Columns and labels:
Type in all cases: cell-based, Escherichia coli
[1] = tested on: wild-type E. coli K-12 str. BW25113; assay: microbe, parasite or virus in culture; settings: Escherichia coli, BW25113, technical duplicate
Summary of the method: (§1)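 MIC derived from pre-incubation-corrected OD600 after 18 h growth at 37° C. (900 rpm) in MHB II. Inoculum was cells from 18 h LB culture adjusted to OD600 ~1.0 in PBS, then diluted 1/2000; compounds two-fold serially titrated in duplicate, DMSO as solvent control.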

[2] = tested on: E. coli ΔtolC; assay: microbe, parasite or virus in culture; settings: for MIC: Escherichia coli, 18 h, read-out: Minimum Inhibitory Concentration, ΔtolC; for Minimum inhibitory concentration (MIC), ΔtolC: Table 10, without pore, technical duplicate
Summary of the method: as §1

[3] = tested on: E. coli EKO-35; assay: microbe, parasite or virus in culture; settings: for Fold change of MICs: EKO-35 compared to EKO-35 (reference); for MIC: Escherichia coli, EKO35, technical duplicate
Summary of the method: as §1

[4] = tested on: ΔtolC-Pore; assay: microbe, parasite or virus in culture; settings: for MIC: Escherichia coli, 18 h, read-out: Minimum inhibitory concentration, ΔtolC-Pore; for Minimum inhibitory concentration (MIC), Pore ΔtolC: Table 10, with pore, technical duplicate
Summary of the method: (§2)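 E. coli strains carrying a genomically integrated constitutive fhuA ΔC/Δ4L pore were grown 18 h in LB at 37 °C, then diluted 1/2000 in MHB II from OD600 ~1.0. Compounds were tested in duplicate, 2-fold serial titration, for 18 h at 37 °C with shaking. MIC came from OD600 with the pre-incubation background subtracted.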

[5] = tested on: wild-type (WT) K-12-Pore; assay: microbe, parasite or virus in culture; settings: Escherichia coli, technical duplicate
Summary of the method: as §2

[6] = tested on: EKO-35 araC::acrBD408A; assay: MIC susceptibility profiling, efflux platform; settings: for Fold change of MICs: EKO-35 araC::acrBD408A compared to EKO-35; for MIC: Escherichia coli, Table 13B, non-porinated, technical duplicate, read-out: Minimum Inhibitory Concentration, EKO-35 araC::acrBD408A
Summary of the method: as §1

[7] = tested on: EKO-35 araC::acrD; assay: MIC susceptibility profiling, efflux platform; settings: for Fold change of MICs: EKO-35 araC::acrD compared to EKO-35; for MIC: Escherichia coli, Table 13A, non-porinated, technical duplicate, read-out: Minimum Inhibitory Concentration, EKO-35 araC::acrD
Summary of the method: as §1

[8] = tested on: EKO-35 araC::emrKY; assay: MIC susceptibility profiling, efflux platform; settings: for Fold change of MICs: EKO-35 araC::emrKY compared to EKO-35; for MIC: Escherichia coli, Table 13B, non-porinated, technical duplicate, read-out: Minimum Inhibitory Concentration, EKO-35 araC::emrKY
Summary of the method: as §1

[9] = tested on: EKO-35 araC::acrEF; assay: MIC susceptibility profiling, efflux platform; settings: for Fold change of MICs: EKO-35 araC::acrEF compared to EKO-35; for MIC: Escherichia coli, Table 13A, non-porinated, technical duplicate, read-out: Minimum Inhibitory Concentration, EKO-35 araC::acrEF
Summary of the method: as §1

[10] = tested on: EKO-35 araC::acrB; assay: MIC susceptibility profiling, efflux platform; settings: for Fold change of MICs: EKO-35 araC::acrB compared to EKO-35; for MIC: Escherichia coli, Table 13A, non-porinated, technical duplicate, read-out: Minimum Inhibitory Concentration, EKO-35 araC::acrB
Summary of the method: as §1

[11] = tested on: EKO-35 araC::mdtBC; assay: MIC susceptibility profiling, efflux platform; settings: for Fold change of MICs: EKO-35 araC::mdtBC compared to EKO-35; for MIC: Escherichia coli, Table 13B, non-porinated, technical duplicate, read-out: Minimum Inhibitory Concentration, EKO-35 araC::mdtBC
Summary of the method: as §1

[12] = tested on: EKO-35 araC::mexCD (MexCD from P. aeruginosa); assay: MIC susceptibility profiling, efflux platform; settings: for Fold change of MICs: EKO-35 araC::mexCD compared to EKO-35; for MIC: Table 13B, non-porinated, technical duplicate, read-out: Minimum Inhibitory Concentration, EKO-35 araC::mexCD
Summary of the method: as §1

[13] = tested on: EKO-35 araC::mdtEF; assay: MIC susceptibility profiling, efflux platform; settings: for Fold change of MICs: EKO-35 araC::mdtEF compared to EKO-35; for MIC: Escherichia coli, Table 13A, non-porinated, technical duplicate, read-out: Minimum Inhibitory Concentration, EKO-35 araC::mdtEF
Summary of the method: as §1

[14] = tested on: EKO-35 araC::macAB; assay: MIC susceptibility profiling, efflux platform; settings: for Fold change of MICs: EKO-35 araC::macAB compared to EKO-35; for MIC: Escherichia coli, Table 13B, non-porinated, technical duplicate, read-out: Minimum Inhibitory Concentration, EKO-35 araC::macAB
Summary of the method: as §1

[15] = tested on: EKO-35 araC::emrAB; assay: MIC susceptibility profiling, efflux platform; settings: for Fold change of MICs: EKO-35 araC::emrAB compared to EKO-35; for MIC: Escherichia coli, Table 13B, non-porinated, technical duplicate, read-out: Minimum Inhibitory Concentration, EKO-35 araC::emrAB
Summary of the method: as §1

[16] = tested on: EKO-35-Pore; assay: MIC susceptibility profiling, porinated strain; settings: for Fold changes of MICs: EKO-35-Pore compared to EKO-35-Pore (reference); for MIC: Escherichia coli, technical duplicate
Summary of the method: as §2

[17] = tested on: EKO-35 araC::mdtEF Pore; assay: MIC susceptibility profiling, porinated efflux platform; settings: for Fold changes of MICs: EKO-35 araC::mdtEF Pore compared to EKO-35-Pore
Summary of the method: as §2

[18] = tested on: EKO-35 araC::acrB Pore; assay: as above; settings: for Fold changes of MICs: EKO-35 araC::acr-B Pore compared to EKO-35-Pore; for MIC: Escherichia coli, Table 14A, porinated, technical duplicate, read-out: Minimum inhibitory concentration, EKO-35 araC::acrB Pore
Summary of the method: as §2

[19] = tested on: EKO-35 araC::mdtBC Pore; assay: as above; settings: for Fold changes of MICs: EKO-35 araC::mdtBC Pore compared to EKO-35-Pore; for MIC: Escherichia coli, EKO-35 araC::mdtBC Pore, technical duplicate, read-out: Minimum inhibitory concentration
Summary of the method: as §2

[20] = Table 10, without pore, read-out: Minimum inhibitory concentration (MIC), K-12
[21] = Table 13A, non-porinated, read-out: Minimum Inhibitory Concentration, K-12
[22] = Table 10, without pore, read-out: Minimum inhibitory concentration (MIC), EKO-35
[23] = Table 13A, non-porinated, read-out: Minimum Inhibitory Concentration, EKO-35
[24] = Table 10, with pore, read-out: Minimum inhibitory concentration (MIC), Pore K-12
[25] = Table 14A, porinated, read-out: Minimum inhibitory concentration, K-12 (WT)-Pore
[26] = Table 10, with pore, read-out: Minimum inhibitory concentration (MIC), Pore EKO-35
[27] = Table 14A, porinated, read-out: Minimum inhibitory concentration, EKO-35-Pore

Row | SMILES | MIC [1, 20] [µg/mL] | MIC [1, 21] [µg/mL] | MIC [2] [µg/mL] | Minimum inhibitory concentration (MIC), ΔtolC [2] [µg/mL] | Fold change of MICs [3] [fold] | MIC [3, 22] [µg/mL] | MIC [3, 23] [µg/mL] | MIC [4] [µg/mL] | Minimum inhibitory concentration (MIC), Pore ΔtolC [4] [µg/mL] | MIC [5, 24] [µg/mL] | MIC [5, 25] [µg/mL] | Fold change of MICs [6] [fold] | MIC [6] [µg/mL] | Fold change of MICs [7] [fold] | Fold change of MICs [8] [fold] | MIC [8] [µg/mL] | Fold change of MICs [9] [fold] | Fold change of MICs [10] [fold] | Fold change of MICs [11] [fold] | MIC [11] [µg/mL] | further results
1 | [H]/N=C(\N/C(=N/[H])NCCCCCCNC(=N)NC(=N)Nc1ccc(Cl)cc1)Nc1ccc(Cl)cc1 [Chlorhexidine] | 0.781 | 0.781 | 0.391 | 0.391 | 1 | 0.391 | 0.391 | 0.391 | 0.391 | 0.781 | 0.781 | 1 | 0.391 | 1 | 1 | 0.391 | 1 | 1 | 1 | 0.391 | MIC [7]: 0.391 µg/mL; MIC [9]: 0.391 µg/mL; MIC [10]: 0.391 µg/mL; Fold change of MICs [12]: 1 fold; MIC [12]: 0.391 µg/mL; Fold change of MICs [13]: 1 fold; MIC [13]: 0.391 µg/mL; Fold change of MICs [14]: 1 fold; MIC [14]: 0.391 µg/mL; Fold change of MICs [15]: 1 fold; MIC [15]: 0.391 µg/mL; Fold changes of MICs [16]: 1 fold; MIC [16, 26]: 0.391 µg/mL; MIC [16, 27]: 0.391 µg/mL; Fold changes of MICs [17]: 1 fold; MIC ([17]; Escherichia coli, Table 14A, porinated, technical duplicate, read-out: Minimum inhibitory concentration, EKO-35 araC::mdtEF Pore): 0.391 µg/mL; Fold changes of MICs [18]: 1 fold; MIC [18]: 0.391 µg/mL; Fold changes of MICs [19]: 1 fold; MIC [19]: 0.391 µg/mL
2 | CCCCCCCCCCCCOS(=O)(=O)[O-].[Na+] [SDS, sodium dodecyl sulphate] | 1000 | 1000 | 15.6 | 15.625 | 1 | 31.2 | 31.2 | 15.6 | 15.625 | 1000 | 1000 | 2 | 62.5 | 32 | 2 | 62.5 | 32 | 32 | 2 | 62.5 | efflux pump-mediated resistance vs EKO-35 ([7]; AcrD): confirmed; Fold change of MICs [12]: 32 fold; MIC [12]: 1000 µg/mL; Fold change of MICs [13]: 32 fold; Fold change of MICs [14]: 1 fold; MIC [14]: 31.2 µg/mL; Fold change of MICs [15]: 4 fold; MIC [15]: 125 µg/mL; Fold changes of MICs [16]: 1 fold; MIC [16, 26]: 31.2 µg/mL; MIC [16, 27]: 31.2 µg/mL; Fold changes of MICs [17]: 32 fold; Fold changes of MICs [18]: 32 fold; Fold changes of MICs [19]: 1 fold; MIC [19]: 31.2 µg/mL
3 | CN[C@@H]1[C@H](O)[C@H](NC)[C@H]2O[C@@]3(O)C(=O)C[C@@H](C)O[C@H]3O[C@@H]2[C@H]1O [Spectinomycin] | 25 | 25 | 6.25 | 6.25 | 1 | 25 | 25 | 6.25 | 6.25 | 12.5 | 12.5 | 1 | 25 | 1 | 1 | 25 | 1 | 1 | 1 | 25 | MIC [7]: 25 µg/mL; MIC [9]: 25 µg/mL; MIC [10]: 25 µg/mL; Fold change of MICs [12]: 1 fold; MIC [12]: 25 µg/mL; Fold change of MICs [13]: 1 fold; MIC [13]: 25 µg/mL; Fold change of MICs [14]: 1 fold; MIC [14]: 25 µg/mL; Fold change of MICs [15]: 1 fold; MIC [15]: 25 µg/mL; Fold changes of MICs [16]: 1 fold; Fold changes of MICs [17]: 1 fold; Fold changes of MICs [18]: 2 fold; MIC [18]: 25 µg/mL; Fold changes of MICs [19]: 1 fold
